Results on 25 compounds are retold here after PubChem BioAssay AID330 (DTP/NCI, 2004).

This test concerns P388 leukemia ip, CD2F1 mice, survival T/C. The experiment in a line: NCI In Vivo Anticancer Drug Screen. Data for tumor model P388 Leukemia (intraperitoneal) in CD2F1 (CDF1) mice. Conditions: endpoint: median survival time, higher = longer survival. Put shortly: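 Mice carrying the transplanted tumor received test compound or vehicle. Survival was recorded in each group, and the value is the treated-group measurement divided by that of the vehicle-treated control group.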

The mark [1] stands for this setting: dose: 50.0 mg/kg/injection, schedule: Q04DX003 (ip), vehicle: saline with Tween-80.
The mark [2] stands for this setting: dose: 100.0 mg/kg/injection, schedule: Q04DX003 (ip), vehicle: saline with Tween-80.
[3] abbreviates: dose: 100.0 mg/kg/injection, schedule: Q04DX002 (ip), vehicle: Klucel (hydroxypropylcellulose) (HPC).
Where [4] appears, read: dose: 200.0 mg/kg/injection, schedule: Q04DX002 (ip), vehicle: Klucel (hydroxypropylcellulose) (HPC).
Where [5] appears, read: dose: 400.0 mg/kg/injection, schedule: Q04DX002 (ip), vehicle: Klucel (hydroxypropylcellulose) (HPC).
Setting [6] is: dose: 50.0 mg/kg/injection, schedule: Q01DX009 (ip), vehicle: saline.
Where [7] appears, read: dose: 12.5 mg/kg/injection, schedule: Q01DX009 (ip), vehicle: saline with Tween-80.
[8] abbreviates: dose: 25.0 mg/kg/injection, schedule: Q01DX009 (ip), vehicle: saline with Tween-80.
[9] abbreviates: dose: 50.0 mg/kg/injection, schedule: Q01DX009 (ip), vehicle: saline with Tween-80.
[10] abbreviates: dose: 100.0 mg/kg/injection, schedule: Q01DX009 (ip), vehicle: saline with Tween-80.
[11] abbreviates: dose: 200.0 mg/kg/injection, schedule: Q01DX009 (ip), vehicle: saline with Tween-80.
[12] abbreviates: dose: 200.0 mg/kg/injection, schedule: Q01DX005 (ip), vehicle: saline with Tween-80.
Setting [13] is: dose: 50.0 mg/kg/injection, schedule: Q01DX005 (ip), vehicle: Klucel (hydroxypropylcellulose) (HPC).
The mark [14] stands for this setting: dose: 100.0 mg/kg/injection, schedule: Q01DX005 (ip), vehicle: Klucel (hydroxypropylcellulose) (HPC).

Where “and” joins values, the source holds several entries; their conditions need not be identical. Identical values can stand only once. Inconclusive results and toxic doses are left out.

For `S=c1nc2ccccn2c(=S)n1-c1ccccn1`, the T/C under setting [1] is 95 % of control and the T/C under setting [2] was 115 % of control.

For `COc1ccc(N2CCN(/C=C3\Cc4ccc(F)cc4C3=O)CC2)cc1`, the T/C is 103 % of control under setting [3], 99 % of control under setting [4] and 95 % of control under setting [5].

On to `CN1CCC(O)CC1C(=O)O` (stereo not drawn), for which the T/C is 98 % of control under setting [6]; 104 % of control (dose: 100.0 mg/kg/injection, schedule: Q01DX009 (ip), vehicle: saline); 105 % of control (dose: 200.0 mg/kg/injection, schedule: Q01DX009 (ip), vehicle: saline).

For the compound `CN(C)c1nc(N)c(N=O)c(=O)[nH]1`, the T/C by setting is: under setting [7], 104 % of control; under setting [8], 94 % of control; under setting [9], 94 % of control; under setting [6], 87 % of control; under setting [1], 94 % of control; under setting [2], 93 % of control.

In the case of `C=C1CC(OC(=O)C(C)C)C2C(=C)C(=O)O[C@@H]2C2C(=C)[C@@H](O)CC12` (stereo partly drawn), the T/C (dose: 20.0 mg/kg/injection, schedule: Q01DX005 (ip), vehicle: saline with Tween-80) was 102 % of control; the T/C (dose: 40.0 mg/kg/injection, schedule: Q01DX005 (ip), vehicle: saline with Tween-80) is 106 % of control; the T/C (dose: 80.0 mg/kg/injection, schedule: Q01DX005 (ip), vehicle: saline with Tween-80) is 115 % of control.

For `CCC1(CCC(C)C)C(=O)N(CCCl)C(=O)N(CCCl)C1=O`, the T/C runs as follows: under setting [9], 100 % of control; under setting [10], 105 % of control; under setting [11], 96 % of control.

As for `Nc1ccc(CNC(=O)COc2cccc(Cl)c2)cc1`, the T/C by setting is: under setting [3], 102 % of control; under setting [4], 108 % of control; under setting [5], 96 % of control.

On to `COc1ccc(OC)c(C(=O)C[n+]2ccccc2)c1`, for which the T/C runs as follows: (dose: 12.5 mg/kg/injection, schedule: Q04DX003 (ip), vehicle: saline) 95 % of control; (dose: 25.0 mg/kg/injection, schedule: Q04DX003 (ip), vehicle: saline) 90 % of control; (dose: 50.0 mg/kg/injection, schedule: Q04DX003 (ip), vehicle: saline) 100 % of control.

In the case of `O=C1CS/C(=N/N=C/c2nc3ccccc3c(=O)n2-c2ccc(Cl)cc2)N1c1ccccc1`, the T/C under setting [12] was 88 % of control.

Turning to `CC1CCC(C(C)C)C(NC(=O)c2cccnc2)C1` (stereo not drawn), the T/C was 102 % of control (dose: 25.0 mg/kg/injection, schedule: Q04DX002 (ip), vehicle: Klucel (hydroxypropylcellulose) (HPC)); 101 % of control (dose: 52.0 mg/kg/injection, schedule: Q04DX002 (ip), vehicle: Klucel (hydroxypropylcellulose) (HPC)); 100 % of control under setting [3]; 103 % of control under setting [4].

In the case of `NC(N)=N/N=C/c1ccc(Cl)c(Cl)c1`, the T/C was 100 % of control under setting [7], 95 % of control under setting [8] and 86 % of control under setting [9].

In the case of `NC(=O)C1CCCC12NC(=O)NC2=O` (stereo not drawn), the T/C is 90 % of control (dose: 100.0 mg/kg/injection, schedule: Q01DX009 (ip), vehicle: Klucel (hydroxypropylcellulose) (HPC)); 90 % of control (dose: 200.0 mg/kg/injection, schedule: Q01DX009 (ip), vehicle: Klucel (hydroxypropylcellulose) (HPC)); 100 % of control (dose: 400.0 mg/kg/injection, schedule: Q01DX009 (ip), vehicle: Klucel (hydroxypropylcellulose) (HPC)).

Regarding `CCN(CC)CCOC(=O)Nc1c(Cl)cccc1Cl`, the T/C runs as follows: (dose: 25.0 mg/kg/injection, schedule: Q01DX005 (ip), vehicle: Klucel (hydroxypropylcellulose) (HPC)) 100 % of control; under setting [13], 107 % of control; (dose: 60.0 mg/kg/injection, schedule: Q01DX005 (ip), vehicle: Klucel (hydroxypropylcellulose) (HPC)) 100 % of control; under setting [14], 100 % of control.

Consider `CSC(=S)/N=c1/sccn1C`, for which the T/C was 100 % of control (dose: 25.0 mg/kg/injection, schedule: Q04DX002 (ip), vehicle: saline with Tween-80); 100 % of control (dose: 50.0 mg/kg/injection, schedule: Q04DX002 (ip), vehicle: saline with Tween-80); 99 % of control (dose: 100.0 mg/kg/injection, schedule: Q04DX002 (ip), vehicle: saline with Tween-80).

Take `COc1cc(NCCCCCN=C(N)NC#N)c2ncccc2c1`: the T/C by setting is: under setting [13], 99 % of control; under setting [14], 98 % of control; (dose: 200.0 mg/kg/injection, schedule: Q01DX005 (ip), vehicle: Klucel (hydroxypropylcellulose) (HPC)) 92 % of control.

Consider `C[N+](C)(CCCCCCOc1c(Br)cc(Br)cc1Br)Cc1ccc(Br)o1`, for which the T/C (dose: 1.56 mg/kg/injection, schedule: Q01DX009 (ip), vehicle: Klucel (hydroxypropylcellulose) (HPC)) was 104 % of control; the T/C (dose: 3.12 mg/kg/injection, schedule: Q01DX009 (ip), vehicle: Klucel (hydroxypropylcellulose) (HPC)) was 113 % of control; the T/C (dose: 6.25 mg/kg/injection, schedule: Q01DX009 (ip), vehicle: Klucel (hydroxypropylcellulose) (HPC)) was 93 % of control.

For the compound `NNC(=O)C(N)=O`, the T/C reads like this: under setting [7], 100 % of control; under setting [8], 104 % of control; under setting [9], 100 % of control; under setting [10], 97 % of control.

Regarding `O=C1C[C@@H]2OC3=C(C(=O)CCC3)[C@@H]2O1`, the T/C was 102 % of control (dose: 60.0 mg/kg/injection, schedule: Q01DX005 (ip), vehicle: saline); 121 % of control (dose: 120.0 mg/kg/injection, schedule: Q01DX005 (ip), vehicle: saline); 119 % of control (dose: 240.0 mg/kg/injection, schedule: Q01DX005 (ip), vehicle: saline).

In the case of `O=[N+]([O-])c1ccc(/C=C/Br)o1`, the T/C by setting is: (dose: 50.0 mg/kg/injection, schedule: Q01DX009 (ip), vehicle: suspension in saline) 88 % of control; (dose: 100.0 mg/kg/injection, schedule: Q01DX009 (ip), vehicle: suspension in saline) 95 % of control; (dose: 200.0 mg/kg/injection, schedule: Q01DX009 (ip), vehicle: suspension in saline) 103 % of control.

As to `C=C1C(=O)O[C@@H]2/C=C(\C)CC/C=C(/C)CC[C@@H]12`, the T/C is 100 % of control (dose: 12.5 mg/kg/injection, schedule: Q04DX003 (ip), vehicle: Klucel (hydroxypropylcellulose) (HPC)); 107 % of control (dose: 25.0 mg/kg/injection, schedule: Q04DX003 (ip), vehicle: Klucel (hydroxypropylcellulose) (HPC)); 100 % of control (dose: 50.0 mg/kg/injection, schedule: Q04DX003 (ip), vehicle: Klucel (hydroxypropylcellulose) (HPC)); 113 % of control (dose: 100.0 mg/kg/injection, schedule: Q04DX003 (ip), vehicle: Klucel (hydroxypropylcellulose) (HPC)).

`CCCCCCC(=O)/C=C/c1cccc([N+](=O)[O-])c1`: the T/C under setting [9] is 89 % of control, the T/C under setting [10] was 95 % of control and the T/C under setting [11] is 94 % of control.

Take `CCCCOC(=O)[C@@H]1O[C@H]2OC=C[C@H]21`: the T/C is 100 % of control (dose: 6.25 mg/kg/injection, schedule: Q01DX005 (ip), vehicle: saline with Tween-80) and 106 % of control (dose: 12.5 mg/kg/injection, schedule: Q01DX005 (ip), vehicle: saline with Tween-80).

Take `O=C1NC(=O)C(O)(C2=C(O)CCCC2=O)C(=O)N1`: the T/C reads like this: (dose: 50.0 mg/kg/injection, schedule: Q01DX005 (ip), vehicle: saline with Tween-80) 99 % of control; (dose: 100.0 mg/kg/injection, schedule: Q01DX005 (ip), vehicle: saline with Tween-80) 103 % of control; under setting [12], 94 % of control.

As to `CCOC(=O)N[C@H]1CCc2cc(OC)c(OC)c(OC)c2-c2ccc(SC)c(=O)cc21`, the T/C reads like this: (dose: 0.75 mg/kg/injection, schedule: Q01DX009 (ip), vehicle: other) 163 % of control; (dose: 1.5 mg/kg/injection, schedule: Q01DX009 (ip), vehicle: other) 172 % of control; (dose: 3.0 mg/kg/injection, schedule: Q01DX009 (ip), vehicle: other) 109 % of control and 114 % of control.

`[Co].[NH-]CCC[NH-].[NH-]CCC[NH-].[NH-]CCC[NH-]`: the T/C (dose: 25.0 mg/kg/injection, schedule: Q04DX002 (ip), vehicle: saline) is 99 % of control; the T/C (dose: 50.0 mg/kg/injection, schedule: Q04DX002 (ip), vehicle: saline) is 98 % of control; the T/C (dose: 100.0 mg/kg/injection, schedule: Q04DX002 (ip), vehicle: saline) was 100 % of control.
